# Where “and” joins values, the source holds several entries; their conditions need not be identical. Equal values may be shown once. Read-outs that look alike come from different tables or passages of the source.
# Experiments:
# primary AML specimens = test: Viability of primary AML specimens, Annexin V/7-AAD flow cytometry; format: cell-based, human
# Experimental: (§1) The cells were isolated and processed as described. […] All drug treatments were performed in triplicate. […] Total viable cell numbers were determined using a flow cytometric apoptosis assay as described. Briefly, after 18 h of treatment, specimens were labeled with anti-CD34-PE (Becton Dickinson, San Jose, Calif.) for 20 minutes. […] The total number of events collected was 100,000. The percent viable cells was defined as AnnexinV^neg/7-AAD^neg cells on total (ungated) cells and on gates set for CD34^+ populations. • [1] Jordan, C. T., et al., The interleukin-3 receptor alpha chain is a unique marker for human acute myelogenous leukemia stem cells. Leukemia, 2000. 14(10): p. […] Lansdorp, P. M. and W. Dragowska, Long-term erythropoiesis from constant numbers of CD34+ cells in serum-free cultures initiated with highly purified progenitor cells from human bone marrow. […] Guzman, M. L., et al., Nuclear factor-kappaB is constitutively activated in primitive human acute myelogenous leukemia cells. […] 98(8): p.
# primary ALL specimens = test: Viability of primary ALL specimens, Annexin V/7-AAD; format: cell-based; conditions: Homo sapiens, 24 h; read-out: mean viability relative to untreated controls
# [1] = Viability of normal specimens (BM, CB, MPB), Annexin V/7-AAD; format: cell-based, human; conditions: human; read-out: cell viability relative to untreated controls
# Experimental: as §1
# [2] = system: normal specimens (BM, CB, MPB); test: as above; format: cell-based, human; conditions: normal specimens
# Experimental: as §1
# CD34+CD38− bcCML cells = format: cell-based; conditions: Homo sapiens, 24 h
# [3] = format: cell-based; conditions: human, CD34+CD38− cells gated from healthy (normal) specimens
# AML progenitor cells = test: Methylcellulose colony assay, AML; format: cell-based, human; conditions: 20 μM TDZD-8, 18 hours before plating, n=11
# Experimental: Cells were then plated at 50,000 cells/ml in Methocult™ GF H4534 (1% methylcellulose in IMDM, 30% FBS, 1% BSA, 10^−4M 2-mercaptoethanol, 2 mM L-glutamine, 50 ng/ml rh stem cell factor, 10 ng/ml rh GM-CSF, 10 ng/ml rh IL-3-Stem Cell Technologies, Vancouver, B.C.) supplemented with 3 units/ml of erythropoietin and 50 ng/ml G-CSF (R&D Systems, Minneapolis, Minn.). Colonies were scored after 10-14 days of culture.
# [4] = system: normal specimens (BM or CB); test: Membrane integrity by YoPro-1 uptake, normal specimens; format: cell-based, human; conditions: 20 μM TDZD-8 for 15 min
# Experimental: C. […] Cells were then washed with PBS and stained to assess membrane permeability using annexin V-Allophycocyanin (APC) and the vital dyes: Yo-[…] (0.1 uM), Hoescht 33342 (2.5 ug/ml), and Propidium Iodide (0.5 ug/ml) (Molecular Probes).
# [5] = system: pro-caspases 3, 8 or PARP; test: Immunoblot for caspase-dependent apoptotic events; format: cell-based, human; conditions: TDZD-8 treated cells, data not shown
# Experimental: Immunoblots. Cells were prepared and analyzed as previously described.^35 Membrane fractions were prepared using mem-PER eukaryotic membrane protein extraction kit as per manufacturer's instructions (Pierce; Rockford, Ill.). Blots were probed with phospho-PKC (pan) (beta II; Ser660), phospho-PKCalpha/betaII (Thr638/641), total PKCα, PKCβ and FLT3 (Santa Cruz Biotechnology, Calif.), Caspase-3 (Cell Signaling technologies; Danvers, Mass.); caspase-8 and PARP (BD bioscience), cleaved PARP (abcam) or anti-actin (AC-15; Sigma) antibodies.
# [6] = system: phospho-FLT3 in CD34+ AML cells; test: Phospho-FLT3 flow cytometry, CD34+ population of primary AML; format: cell-based, human; conditions: 30 minutes after addition of drug
# All other tumor lines = test: NCI-60 screen, other lines; format: cell-based; conditions: Homo sapiens; NCI-60, non-hematologic lines; read-out: concentration up to which no growth inhibition was shown
# Text: In contrast the cell viability for normal specimens was 79.5% (n=13).
# FLT3 = FLT3 (Homo sapiens, UniProt P36888); test: Kinase assay (single point and titration); format: biochemical
# FLT3, sequence (P36888 27-993): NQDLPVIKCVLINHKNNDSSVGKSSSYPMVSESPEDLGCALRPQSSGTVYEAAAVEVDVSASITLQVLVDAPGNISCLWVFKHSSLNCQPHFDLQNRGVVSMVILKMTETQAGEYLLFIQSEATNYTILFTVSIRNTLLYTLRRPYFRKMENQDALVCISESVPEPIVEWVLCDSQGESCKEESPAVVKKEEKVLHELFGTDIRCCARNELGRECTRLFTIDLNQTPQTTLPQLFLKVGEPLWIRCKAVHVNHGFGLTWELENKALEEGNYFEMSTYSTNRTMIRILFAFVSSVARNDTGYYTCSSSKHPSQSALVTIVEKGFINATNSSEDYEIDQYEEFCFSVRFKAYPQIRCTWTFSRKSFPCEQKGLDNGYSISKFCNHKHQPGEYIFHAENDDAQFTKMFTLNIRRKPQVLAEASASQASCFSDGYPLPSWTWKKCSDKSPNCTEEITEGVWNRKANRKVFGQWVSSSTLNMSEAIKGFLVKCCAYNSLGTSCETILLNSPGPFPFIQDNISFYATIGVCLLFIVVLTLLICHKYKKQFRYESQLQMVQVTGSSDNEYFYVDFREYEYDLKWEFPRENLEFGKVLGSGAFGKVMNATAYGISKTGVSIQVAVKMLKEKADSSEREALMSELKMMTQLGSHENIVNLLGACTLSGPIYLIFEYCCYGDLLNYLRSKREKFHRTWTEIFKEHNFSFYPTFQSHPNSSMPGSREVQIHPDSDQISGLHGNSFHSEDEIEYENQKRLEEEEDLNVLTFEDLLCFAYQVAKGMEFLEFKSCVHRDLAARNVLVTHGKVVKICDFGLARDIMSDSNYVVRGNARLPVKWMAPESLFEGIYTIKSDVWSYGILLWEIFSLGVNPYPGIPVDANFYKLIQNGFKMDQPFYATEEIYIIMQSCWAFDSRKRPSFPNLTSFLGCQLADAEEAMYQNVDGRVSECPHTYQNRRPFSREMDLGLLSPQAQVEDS
# Experimental: (§2) Kinase Assays: Single point and titration assays are performed using protocols (or essentially using protocols) know in the art for kinase activity profiling against a battery of kinase targets, including, for example, those specifically delineated herein. Such assays include, for example, those available from commercial sources, contract research laboratories, and the like.
# PRKCB1 (PKC beta I) = PRKCB1 (PKC beta I) (Homo sapiens, UniProt P05771); test: Kinase assay (single point and titration); format: biochemical
# PRKCB1 (PKC beta I), sequence (P05771 whole entry): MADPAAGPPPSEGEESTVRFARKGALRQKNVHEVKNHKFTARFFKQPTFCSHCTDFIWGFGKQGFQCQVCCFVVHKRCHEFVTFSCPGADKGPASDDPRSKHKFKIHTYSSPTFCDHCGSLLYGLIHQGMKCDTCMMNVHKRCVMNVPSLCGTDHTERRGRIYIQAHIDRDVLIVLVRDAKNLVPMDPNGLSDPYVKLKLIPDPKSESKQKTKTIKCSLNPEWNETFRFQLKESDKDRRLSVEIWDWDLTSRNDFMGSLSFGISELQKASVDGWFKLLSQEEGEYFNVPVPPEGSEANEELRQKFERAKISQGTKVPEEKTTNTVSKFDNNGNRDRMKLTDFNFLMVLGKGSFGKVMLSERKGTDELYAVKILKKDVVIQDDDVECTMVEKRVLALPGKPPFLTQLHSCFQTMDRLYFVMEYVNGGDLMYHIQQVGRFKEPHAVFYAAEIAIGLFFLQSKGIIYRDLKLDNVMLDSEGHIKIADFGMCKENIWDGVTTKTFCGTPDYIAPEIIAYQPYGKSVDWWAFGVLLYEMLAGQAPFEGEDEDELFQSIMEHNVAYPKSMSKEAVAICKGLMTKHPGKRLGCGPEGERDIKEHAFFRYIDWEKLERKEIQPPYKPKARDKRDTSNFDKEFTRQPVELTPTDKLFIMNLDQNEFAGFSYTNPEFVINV
# Experimental: as §2
# PRKCD (PKC delta) = PRKCD (PKC delta) (Homo sapiens, UniProt Q05655); test: Kinase assay (single point and titration); format: biochemical
# PRKCD (PKC delta), sequence (Q05655 whole entry): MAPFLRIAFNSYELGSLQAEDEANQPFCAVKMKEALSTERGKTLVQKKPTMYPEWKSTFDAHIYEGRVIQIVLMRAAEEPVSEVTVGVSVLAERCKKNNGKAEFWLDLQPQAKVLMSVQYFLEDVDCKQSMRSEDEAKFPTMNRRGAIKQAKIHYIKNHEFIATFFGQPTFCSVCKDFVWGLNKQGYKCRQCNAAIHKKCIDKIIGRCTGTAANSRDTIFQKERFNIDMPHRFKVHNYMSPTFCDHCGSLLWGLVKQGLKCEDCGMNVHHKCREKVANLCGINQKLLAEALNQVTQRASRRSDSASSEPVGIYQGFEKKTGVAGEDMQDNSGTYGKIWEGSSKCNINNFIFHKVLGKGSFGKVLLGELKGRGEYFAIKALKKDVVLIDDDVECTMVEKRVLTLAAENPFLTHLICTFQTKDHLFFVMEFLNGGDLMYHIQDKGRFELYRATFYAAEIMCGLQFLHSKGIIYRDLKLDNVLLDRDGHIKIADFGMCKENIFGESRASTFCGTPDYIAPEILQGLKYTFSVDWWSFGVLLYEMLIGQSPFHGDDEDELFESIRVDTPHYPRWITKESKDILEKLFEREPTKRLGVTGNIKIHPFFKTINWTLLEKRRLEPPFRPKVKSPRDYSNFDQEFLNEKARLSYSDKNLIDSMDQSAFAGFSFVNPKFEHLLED
# Experimental: as §2
# PRKCI (PKC iota) = PRKCI (PKC iota) (Homo sapiens, UniProt P41743); test: Kinase assay (single point and titration); format: biochemical
# PRKCI (PKC iota), sequence (P41743 whole entry): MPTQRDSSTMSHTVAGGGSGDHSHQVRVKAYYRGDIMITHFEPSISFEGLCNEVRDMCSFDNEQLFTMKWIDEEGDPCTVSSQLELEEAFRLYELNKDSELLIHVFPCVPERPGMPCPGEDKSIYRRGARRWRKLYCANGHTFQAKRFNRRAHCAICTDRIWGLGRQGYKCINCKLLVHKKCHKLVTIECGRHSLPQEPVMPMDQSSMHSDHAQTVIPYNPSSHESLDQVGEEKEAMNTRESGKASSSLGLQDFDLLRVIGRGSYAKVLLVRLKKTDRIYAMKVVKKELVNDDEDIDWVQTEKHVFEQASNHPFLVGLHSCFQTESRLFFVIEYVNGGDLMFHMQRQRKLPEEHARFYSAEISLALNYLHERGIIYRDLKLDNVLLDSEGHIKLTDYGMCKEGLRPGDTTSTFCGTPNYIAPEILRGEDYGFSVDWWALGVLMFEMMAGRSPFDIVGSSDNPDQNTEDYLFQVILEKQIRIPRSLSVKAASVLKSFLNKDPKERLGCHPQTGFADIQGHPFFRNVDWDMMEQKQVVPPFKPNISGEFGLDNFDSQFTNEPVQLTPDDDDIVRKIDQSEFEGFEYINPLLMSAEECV
# Experimental: as §2
# ABL1 = ABL1 (Homo sapiens, UniProt P00519); test: Kinase assay; format: biochemical
# ABL1, sequence (P00519 whole entry): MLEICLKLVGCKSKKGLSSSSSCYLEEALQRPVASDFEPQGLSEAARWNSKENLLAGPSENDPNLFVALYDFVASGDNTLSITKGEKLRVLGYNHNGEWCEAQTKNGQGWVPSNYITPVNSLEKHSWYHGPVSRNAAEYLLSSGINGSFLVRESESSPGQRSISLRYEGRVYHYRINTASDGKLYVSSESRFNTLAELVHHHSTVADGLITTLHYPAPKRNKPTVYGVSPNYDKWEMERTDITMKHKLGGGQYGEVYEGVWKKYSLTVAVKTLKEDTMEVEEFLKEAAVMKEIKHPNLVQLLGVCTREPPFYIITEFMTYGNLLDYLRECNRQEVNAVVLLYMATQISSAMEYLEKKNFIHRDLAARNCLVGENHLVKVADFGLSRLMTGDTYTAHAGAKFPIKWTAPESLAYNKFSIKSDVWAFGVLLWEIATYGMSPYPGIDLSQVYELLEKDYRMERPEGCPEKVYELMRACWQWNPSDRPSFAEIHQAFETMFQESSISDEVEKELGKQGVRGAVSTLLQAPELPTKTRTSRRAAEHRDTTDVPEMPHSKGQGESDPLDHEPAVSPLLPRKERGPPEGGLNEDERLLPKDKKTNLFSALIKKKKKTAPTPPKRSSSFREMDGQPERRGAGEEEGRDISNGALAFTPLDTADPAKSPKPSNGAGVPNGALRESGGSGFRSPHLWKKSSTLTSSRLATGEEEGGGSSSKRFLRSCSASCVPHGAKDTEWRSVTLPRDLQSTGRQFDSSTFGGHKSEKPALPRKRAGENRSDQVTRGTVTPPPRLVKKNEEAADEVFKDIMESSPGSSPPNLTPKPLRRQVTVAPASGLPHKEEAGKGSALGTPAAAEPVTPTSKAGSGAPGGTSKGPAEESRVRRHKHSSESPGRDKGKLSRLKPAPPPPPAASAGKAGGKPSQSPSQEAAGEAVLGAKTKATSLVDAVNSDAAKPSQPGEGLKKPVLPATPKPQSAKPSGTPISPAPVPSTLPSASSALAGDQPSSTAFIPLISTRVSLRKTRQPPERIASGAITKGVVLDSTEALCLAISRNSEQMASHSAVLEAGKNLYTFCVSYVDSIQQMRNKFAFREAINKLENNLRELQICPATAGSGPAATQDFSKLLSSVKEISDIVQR
# Experimental: as §2
# CSNK1G2 (CK1 gamma 2) = CSNK1G2 (CK1 gamma 2) (Homo sapiens, UniProt P78368); test: Kinase assay; format: biochemical
# CSNK1G2 (CK1 gamma 2), sequence (P78368 whole entry): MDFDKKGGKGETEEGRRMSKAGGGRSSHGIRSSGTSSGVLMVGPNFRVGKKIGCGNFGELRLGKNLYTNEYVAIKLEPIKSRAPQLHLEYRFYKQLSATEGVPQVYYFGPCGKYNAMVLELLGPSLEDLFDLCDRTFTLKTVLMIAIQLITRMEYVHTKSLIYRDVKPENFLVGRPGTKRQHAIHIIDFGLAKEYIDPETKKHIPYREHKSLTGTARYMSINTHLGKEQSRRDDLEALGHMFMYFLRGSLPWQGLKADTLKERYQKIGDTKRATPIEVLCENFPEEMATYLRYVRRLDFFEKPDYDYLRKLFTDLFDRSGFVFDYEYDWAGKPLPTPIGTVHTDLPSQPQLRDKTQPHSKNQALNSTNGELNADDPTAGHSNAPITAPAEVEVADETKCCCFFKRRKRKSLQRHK
# Experimental: as §2
# IRAK4 = IRAK4 (Homo sapiens, UniProt Q9NWZ3); test: Kinase assay; format: biochemical
# IRAK4, sequence (Q9NWZ3 whole entry): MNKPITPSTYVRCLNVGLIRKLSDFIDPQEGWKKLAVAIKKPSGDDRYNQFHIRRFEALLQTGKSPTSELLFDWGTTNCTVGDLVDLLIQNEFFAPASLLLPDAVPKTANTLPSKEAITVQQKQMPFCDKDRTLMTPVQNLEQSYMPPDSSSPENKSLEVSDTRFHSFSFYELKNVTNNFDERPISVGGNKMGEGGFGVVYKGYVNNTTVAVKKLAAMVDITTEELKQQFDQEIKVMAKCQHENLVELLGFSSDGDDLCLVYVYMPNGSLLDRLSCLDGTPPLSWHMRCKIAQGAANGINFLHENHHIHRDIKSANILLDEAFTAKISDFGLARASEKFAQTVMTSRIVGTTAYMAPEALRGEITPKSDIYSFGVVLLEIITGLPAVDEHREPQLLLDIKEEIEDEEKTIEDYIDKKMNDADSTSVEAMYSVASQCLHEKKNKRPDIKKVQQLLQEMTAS
# Experimental: as §2
# MAPK3 (ERK1) = MAPK3 (ERK1) (Homo sapiens, UniProt P27361); test: Kinase assay; format: biochemical
# Experimental: as §2
# MET (cMet) = MET (cMet) (Homo sapiens, UniProt P08581); test: Kinase assay; format: biochemical
# Experimental: as §2
# PRKCA (PKC alpha) = PRKCA (PKC alpha) (Homo sapiens, UniProt P17252); test: Kinase assay; format: biochemical
# Experimental: as §2
# PRKCB2 (PKC beta II) = PRKCB2 (PKC beta II) (Homo sapiens, UniProt P05771); test: Kinase assay; format: biochemical
# Experimental: as §2
# PICA = PICA (Homo sapiens, UniProt P17612); conditions: reported; cited from earlier work
# [7] = titration, read-out: in vitro IC50
structure (smiles),measurement,setting,value
"Cn1sc(=O)n(Cc2ccccc2)c1=O [TDZD-8, 4-benzyl-2-methyl-1,2,4-thiadiazolidine-3,5-dione]",viability at 20 µM,"primary AML specimens; Homo sapiens, 24 h, read-out: mean viability relative to untreated controls",15%
same,treatment time that may also be effective,"primary AML specimens; additional preliminary data, not shown",≤ 5 min
same,mean time to achieve ≧50% cell death,"primary AML specimens; bulk leukemia blast populations, 17 primary specimens",2 h
same,Rapid kinetics,primary AML specimens; cell death kinetics,Yes
same,time within which most toxicity is evident,primary AML specimens; leukemia cells,1 to 6 h
same,Cytotoxic AML,primary AML specimens; primary AML specimens,Yes
same,time of TDZD-8 exposure at which cell death was frequently evident,"primary AML specimens; primary AML, bcCML, ALL and CLL specimens",≤ 2 h
same,viability,"primary AML specimens; three of 17 specimens, within 30 minutes",below 30%
same,viability at 20 µM,primary ALL specimens,12.4%
same,"viability at 24 h, 20 μM",[1],79.5%
same,Cytotoxic Normal,[2],No
same,viability at 20 µM,CD34+CD38− bcCML cells,2.8%
same,"viability at 24 h, 20 μM",[3],80.2%
same,"CFU, normalized to untreated controls",AML progenitor cells,7.3%
same,rapid uptake of YoPro-1,[4],not evident in normal specimens
same,"cleavage of pro-caspases 3, 8 or PARP",[5],"no cleavage of pro-caspases 3, 8 or PARP was detected"
same,inhibition of FLT3 phosphorylation,[6],~30% and 31%
same,IC50,All other tumor lines,> 100 µM
same,inhibition at 20 µM,FLT3,99%
same,IC50,"FLT3; titration curve, FIG. 13C, read-out: in vitro IC50",673 nM
same,inhibition at 20 µM,PRKCB1 (PKC beta I),98%
same,IC50,PRKCB1 (PKC beta I); [7],1400 nM
same,inhibition at 20 µM,PRKCD (PKC delta),102%
same,IC50,PRKCD (PKC delta); [7],1100 nM
same,inhibition at 20 µM,PRKCI (PKC iota),100%
same,IC50,PRKCI (PKC iota); [7],5.5 µM
same,inhibition at 20 µM,ABL1,70%
same,inhibition at 20 µM,CSNK1G2 (CK1 gamma 2),22%
same,inhibition at 20 µM,IRAK4,8%
same,inhibition at 20 µM,MAPK3 (ERK1),61%
same,inhibition at 20 µM,MET (cMet),90%
same,inhibition at 20 µM,PRKCA (PKC alpha),102%
same,inhibition at 20 µM,PRKCB2 (PKC beta II),99%
same,IC50,PICA,> 100 µM

# From US9180118B2, “Thiadiazolidinone derivatives” (University of Rochester, priority 2006, dated 2015)
